The target of experiment [1] is T1, Dual specificity protein kinase TTK (Homo sapiens, UniProt P33981).
T1 sequence (P33981 whole entry): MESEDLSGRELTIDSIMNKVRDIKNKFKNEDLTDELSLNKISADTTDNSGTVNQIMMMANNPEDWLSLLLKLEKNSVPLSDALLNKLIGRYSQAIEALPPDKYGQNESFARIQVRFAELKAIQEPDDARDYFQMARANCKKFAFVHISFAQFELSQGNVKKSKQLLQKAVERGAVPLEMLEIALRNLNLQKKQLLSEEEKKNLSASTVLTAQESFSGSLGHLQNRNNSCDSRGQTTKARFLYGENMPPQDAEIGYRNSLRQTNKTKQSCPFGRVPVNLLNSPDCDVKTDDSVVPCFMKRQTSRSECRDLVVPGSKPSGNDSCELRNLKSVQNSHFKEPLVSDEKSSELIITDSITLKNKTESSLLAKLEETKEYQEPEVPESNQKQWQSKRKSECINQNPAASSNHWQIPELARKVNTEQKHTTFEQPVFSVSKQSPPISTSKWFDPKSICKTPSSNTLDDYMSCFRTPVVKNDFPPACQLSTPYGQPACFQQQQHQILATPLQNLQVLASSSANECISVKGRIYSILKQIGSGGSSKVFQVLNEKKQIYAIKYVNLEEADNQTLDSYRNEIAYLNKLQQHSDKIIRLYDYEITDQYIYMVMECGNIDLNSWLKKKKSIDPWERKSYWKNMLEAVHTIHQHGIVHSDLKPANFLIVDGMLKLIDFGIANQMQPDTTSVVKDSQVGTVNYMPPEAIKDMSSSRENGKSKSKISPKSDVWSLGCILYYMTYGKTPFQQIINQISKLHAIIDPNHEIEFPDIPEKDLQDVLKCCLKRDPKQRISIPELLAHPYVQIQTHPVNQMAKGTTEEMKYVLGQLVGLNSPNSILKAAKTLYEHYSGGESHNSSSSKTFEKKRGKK
Nature of the experiment: Mps-1 Kinase Assay: N-terminally GST-tagged human full length recombinant Mps-1 kinase (purchased from Invitrogen, Karslruhe, Germany, cat. no PV4071) was used. As substrate for the kinase reaction a biotinylated peptide of the amino-acid sequence biotin-Ahx-PWDPDDADITEILG (C-terminus in amide form, purchased from Biosyntan GmbH, Berlin) was used. For the assay 50 nl of a 100-fold concentrated solution of the test compound in DMSO was pipetted into a black low volume 384 well microtiter plate (Greiner Bio-One, Frickenhausen, Germany), 2 ul of a solution of Mps-1 in assay buffer [0.1 mM sodium-ortho-vanadate, 10 mM MgCl2, 2 mM DTT, 25 mM Hepes pH 7.7, 0.05% BSA (w/v), 0.001% Pluronic F-127] were added and the mixture was incubated for 15 min at 22° C. to allow pre-binding of the test compounds to Mps-1 before the start of the kinase reaction. Then the kinase reaction was started by the addition of 3 ul of a solution of 16.7 uM adenosine-tri-phosphate (ATP, 16.7 uM=>final conc. in the 5 ul assay volume is 10 uM) and peptide substrate (1.67 uM=>final conc. in the 5 ul assay volume is 1 uM) in assay buffer and the resulting mixture was incubated for a reaction time of 60 min at 22° C. […].

Experiment [2] concerns the target Mitotic checkpoint serine/threonine-protein kinase BUB1 (Homo sapiens, UniProt O43683). Briefly: Bub1 Kinase Assay: Recombinant fusion proteins of GST and human CDK2 and of GST and human CycE, expressed in insect cells (Sf9) and purified by Glutathion-Sepharose affinity chromatography, were purchased from ProQinase GmbH (Freiburg, Germany). As substrate for the kinase reaction biotinylated peptide biotin-Ttds-YISPLKSPYKISEG (C-terminus in amid form) was used which can be purchased e.g. form the company JERINI peptide technologies (Berlin, Germany). For the assay 50 nl of a 100 fold concentrated solution of the test compound in DMSO was pipetted into a black low volume 384 well microtiter plate (Greiner Bio-One, Frickenhausen, Germany), 2 ul of a solution of CDK2/CycE in aqueous assay buffer [50 mM Tris/HCl pH 8.0, 10 mM MgCl2, 1.0 mM dithiothreitol, 0.1 mM sodium ortho-vanadate, 0.01% (v/v) Nonidet-P40 (Sigma)] were added and the mixture was incubated for 15 min at 22° C. to allow pre-binding of the test compounds to the enzyme before the start of the kinase reaction. Then the kinase reaction was started by the addition of 3 ul of a solution of adenosine-tri-phosphate (ATP, 16.7 uM=>final conc. in the 5 ul assay volume is 10 uM) and substrate (1.25 uM=>final conc. in the 5 ul assay volume is 0.75 uM) in assay buffer and the resulting mixture was incubated for a reaction time of 25 min at 22° C. […].

The nature of experiment [3]: […]: N-terminally His6-tagged recombinant catalytic domain of human Bub1 (amino acids 704-1085), expressed in insect cells (Hi5) and purified by Ni-NTA affinity chromatography and subsequent size exclusion chromatography, was used as enzyme. As substrate for the kinase reaction the biotinylated peptide biotin-Ahx-VLLPKKSFAEPG (C-terminus in amid form) was used which can be purchased e.g. form the company Biosyntan (Berlin, Germany). For the assay 50 nl of a 100 fold concentrated solution of the test compound in DMSO was pipetted into a black low volume 384 well microtiter plate (Greiner Bio-One, Frickenhausen, Germany), 2 ul of a solution of Bub1 in aqueous assay buffer [50 mM Tris/HCl pH 7.5, 10 mM magnesium chloride (MgCl2), 200 mM potassium chloride (KCl), 1.0 mM dithiothreitol (DTT), 0.1 mM sodium ortho-vanadate, 1% (v/v) glycerol, 0.01% (w/v) bovine serum albumine (BSA), 0.005% (v/v) Trition X-100 (Sigma), 1x Complete EDTA-free protease inhibitor mixture (Roche)] were added and the mixture was incubated for 15 min at 22° C. to allow pre-binding of the test compounds to the enzyme before the start of the kinase reaction. […]. In general terms: In gel filtration, larger molecules generally elute earlier.

Three compounds from ChEMBL document CHEMBL5725343, “Amino-substituted isothiazoles” (2017) can be followed below.

As a reminder, the IC50 is the concentration needed to halve the response being measured.

Each structure is given as a SMILES string.

Chain of Mitotic checkpoint serine/threonine-protein kinase BUB1 (O43683 whole entry, the tested form may be a part): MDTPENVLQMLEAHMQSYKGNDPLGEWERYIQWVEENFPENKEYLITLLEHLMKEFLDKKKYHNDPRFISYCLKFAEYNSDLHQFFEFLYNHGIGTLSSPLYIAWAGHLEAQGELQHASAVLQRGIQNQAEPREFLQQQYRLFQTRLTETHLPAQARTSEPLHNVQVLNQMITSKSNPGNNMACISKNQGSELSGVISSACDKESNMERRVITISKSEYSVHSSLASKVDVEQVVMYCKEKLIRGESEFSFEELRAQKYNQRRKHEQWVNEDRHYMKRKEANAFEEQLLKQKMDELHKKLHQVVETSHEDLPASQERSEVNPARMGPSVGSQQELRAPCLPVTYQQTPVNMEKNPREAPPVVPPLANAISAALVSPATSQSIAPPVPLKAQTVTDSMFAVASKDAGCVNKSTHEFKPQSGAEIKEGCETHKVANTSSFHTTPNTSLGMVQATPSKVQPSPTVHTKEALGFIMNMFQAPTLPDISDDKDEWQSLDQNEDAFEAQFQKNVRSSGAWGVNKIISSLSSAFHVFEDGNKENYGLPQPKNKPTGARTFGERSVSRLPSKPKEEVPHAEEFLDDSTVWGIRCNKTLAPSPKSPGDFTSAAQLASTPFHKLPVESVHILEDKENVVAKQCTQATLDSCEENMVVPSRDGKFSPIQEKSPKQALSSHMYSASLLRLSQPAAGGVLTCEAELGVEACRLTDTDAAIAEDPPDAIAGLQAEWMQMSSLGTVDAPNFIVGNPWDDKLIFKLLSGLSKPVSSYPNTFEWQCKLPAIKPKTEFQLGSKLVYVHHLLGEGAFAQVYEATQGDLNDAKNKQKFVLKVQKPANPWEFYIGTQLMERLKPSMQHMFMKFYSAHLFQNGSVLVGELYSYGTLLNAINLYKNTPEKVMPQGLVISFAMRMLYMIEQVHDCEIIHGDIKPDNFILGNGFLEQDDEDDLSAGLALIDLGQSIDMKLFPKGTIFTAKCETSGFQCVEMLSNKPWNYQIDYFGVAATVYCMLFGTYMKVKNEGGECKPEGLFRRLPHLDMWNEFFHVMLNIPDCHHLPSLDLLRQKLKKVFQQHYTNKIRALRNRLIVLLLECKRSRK

Turning to `Cc1nsc(Nc2cncc(-n3cccn3)n2)c1C(=O)Nc1ccc(F)c(F)c1`, the IC50 in experiment [1] was greater than 20 µM; in experiment [2] it was 15 µM.

With `Cc1nsc(Nc2cc(C#N)ccn2)c1C(=O)Nc1ccc(Oc2ccc(F)cc2F)nc1`, the IC50 in experiment [1] and in experiment [2] was greater than 20 µM in each case.

For the compound `COc1ccc(Oc2ccc(CC(=O)c3c(C)nsc3Nc3cc(C#N)ccn3)cn2)cc1`, the IC50 in experiment [3] was greater than 20 µM.
